In the supplement of paper PMC10307832:

Experiments:
Test in all cases: relative viability (nuclei count vs DMSO), 5 days (fraction); higher = more cells survive
NCI-H1650 = tested on: NCI-H1650
In short: (§1)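 Relative viability was taken as the ratio of nuclei in treated wells to nuclei in vehicle wells. Lung cancer cell lines in 1536-well plates received compounds by pin tool one day after seeding, either one drug alone or a fixed anchor-drug dose plus five library-drug doses (not always all listed) in √10 steps. Nuclei were counted on 4× images after 5 days of treatment, and values are medians of duplicate plates.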

NCI-H441 = tested on: NCI-H441
In short: as §1

LC-2-ad = tested on: LC-2-ad
In short: as §1

LCLC-97TM1 = tested on: LCLC-97TM1
In short: as §1

PC-3 [JPC-3] = tested on: PC-3 [JPC-3]
In short: as §1

CAL-12T = tested on: CAL-12T
In short: as §1

NCI-H2087 = tested on: NCI-H2087
In short: as §1

NCI-H2023 = tested on: NCI-H2023
In short: as §1

201T = tested on: 201T
In short: as §1

BEN = tested on: BEN
In short: as §1

H3255 = tested on: H3255
In short: as §1

NCI-H661 = details: first compound 0.0002 µM
In short: as §1

Compound: CC(=O)O[C@@]12CO[C@@H]1C[C@H](O)[C@@]1(C)C(=O)[C@H](O)C3=C(C)[C@@H](OC(=O)[C@H](O)[C@@H](NC(=O)OC(C)(C)C)c4ccccc4)C[C@@](O)([C@@H](OC(=O)c4ccccc4)[C@H]21)C3(C)C [Docetaxel] + Cc1nc(Nc2ncc(C(=O)Nc3c(C)cccc3Cl)s2)cc(N2CCN(CCO)CC2)n1 [Dasatinib] (partner 0.075 µM)
- relative viability (NCI-H1650; first compound 0.0002 µM): 0.263
- relative viability (NCI-H1650; first compound 0.000632 µM): 0.245
- relative viability (NCI-H1650; first compound 0.02 µM): 0.104
- relative viability (NCI-H441; first compound 0.0002 µM): 0.621
- relative viability (NCI-H441; first compound 0.000632 µM): 0.499
- relative viability (NCI-H441; first compound 0.002 µM): 0.235
- relative viability (NCI-H441; first compound 0.006325 µM): 0.224
- relative viability (NCI-H441; first compound 0.02 µM): 0.148
- relative viability (LC-2-ad; first compound 0.0002 µM): 0.362
- relative viability (LC-2-ad; first compound 0.000632 µM): 0.38
- relative viability (LC-2-ad; first compound 0.002 µM): 0.28
- relative viability (LC-2-ad; first compound 0.006325 µM): 0.207
- relative viability (LCLC-97TM1; first compound 0.0002 µM): 0.843
- relative viability (LCLC-97TM1; first compound 0.000632 µM): 0.762
- relative viability (LCLC-97TM1; first compound 0.002 µM): 0.675
- relative viability (LCLC-97TM1; first compound 0.006325 µM): 0.273
- relative viability (LCLC-97TM1; first compound 0.02 µM): 0.144
- relative viability (PC-3 [JPC-3]; first compound 0.0002 µM): 0.94
- relative viability (PC-3 [JPC-3]; first compound 0.000632 µM): 0.954
- relative viability (PC-3 [JPC-3]; first compound 0.002 µM): 0.762
- relative viability (PC-3 [JPC-3]; first compound 0.006325 µM): 0.339
- relative viability (PC-3 [JPC-3]; first compound 0.02 µM): 0.16
- relative viability (CAL-12T; first compound 0.0002 µM): 0.412
- relative viability (CAL-12T; first compound 0.000632 µM): 0.192
- relative viability (CAL-12T; first compound 0.002 µM): 0.137
- relative viability (CAL-12T; first compound 0.006325 µM): 0.0909
- relative viability (CAL-12T; first compound 0.02 µM): 0.0651
- relative viability (NCI-H2087; first compound 0.0002 µM): 0.809
- relative viability (NCI-H2087; first compound 0.000632 µM): 0.371
- relative viability (NCI-H2087; first compound 0.002 µM): 0.171
- relative viability (NCI-H2087; first compound 0.006325 µM): 0.139
- relative viability (NCI-H2087; first compound 0.02 µM): 0.102
- relative viability (NCI-H2023; first compound 0.0002 µM): 0.467
- relative viability (NCI-H2023; first compound 0.000632 µM): 0.339
- relative viability (NCI-H2023; first compound 0.002 µM): 0.134
- relative viability (NCI-H2023; first compound 0.006325 µM): 0.123
- relative viability (NCI-H2023; first compound 0.02 µM): 0.0567
- relative viability (201T; first compound 0.0002 µM): 0.562
- relative viability (201T; first compound 0.000632 µM): 0.548
- relative viability (201T; first compound 0.002 µM): 0.52
- relative viability (201T; first compound 0.006325 µM): 0.46
- relative viability (201T; first compound 0.02 µM): 0.282
- relative viability (BEN; first compound 0.0002 µM): 0.281
- relative viability (BEN; first compound 0.000632 µM): 0.355
- relative viability (BEN; first compound 0.002 µM): 0.328
- relative viability (BEN; first compound 0.006325 µM): 0.183
- relative viability (BEN; first compound 0.02 µM): 0.154
- relative viability (H3255; first compound 0.0002 µM): 0.378
- relative viability (H3255; first compound 0.000632 µM): 0.439
- relative viability (H3255; first compound 0.002 µM): 0.276
- relative viability (H3255; first compound 0.006325 µM): 0.309
- relative viability (H3255; first compound 0.02 µM): 0.252
- relative viability (NCI-H661): 0.836
